Measured values taken from patent publication US20020127281A1, “Stabilized hyrogen peroxide solutions” (priority 2000, published 2002).

Assay: stabilization of peroxy compounds by the present stabilizer system
Format: physicochemical
Source text: Trace amounts of peroxy compounds stabilized with a hydrogen peroxide stabilizer, especially diethylene triamine penta(methylene phosphonic acid) or 1-hydroxyethylidene-1,1-diphosphonic acid may be utilized as a preservative for drugs, eyewashes, or other solutions containing an active ingredient designed to be used in the ocular environment. The preservative according to the present invention may be used in the ocular environment. Furthermore, the preservative according to the present invention may be used in any ophthalmic solution as long as the active ingredient in that solution is compatible with trace amounts of the peroxy compounds. Also, virtually any peroxy compound may be used so long as it is hydrolyzed in water to produce hydrogen peroxide. Examples of such sources of hydrogen peroxide, which provide an effective resultant amount of hydrogen peroxide, include sodium perborate decahydrate, sodium peroxide and urea peroxide. […] Hydrogen peroxide concentrations from about 2 ppm to about 1000 ppm are useful in the present invention. Therefore, peroxy compounds that generate hydrogen peroxide from about 2 ppm to about 1000 ppm are useful in the present invention. More preferably, the concentration of hydrogen peroxide from is about 10 ppm to about 1000 ppm.

CC(=O)OO [peracetic acid]
stabilization by the present system: cannot be stabilized
